For one test, the system named is Bacillus subtilis 168CA. As to the kind of experiment: Minimum Inhibitory Concentration (MIC) testing, broth microdilution, Bacillus subtilis. It counts as cell-based. To be noted: Bacillus subtilis 168CA; read-out: Bacillus subtilis MICs Activity. In short, it runs like this: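 MICs were scored A (≦8 μg/ml), B (16–64 μg/ml) or C (>64 μg/ml), read as the lowest concentration preventing visible growth by eye and spectrophotometry. Plates incubated overnight (16–20 h) at 37 °C, inoculum OD 0.09 diluted 1:100 in 2× broth, per NCCLS guidelines.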

Test [1] deals with Staphylococcus aureus ATCC29213. As to the kind of experiment: Minimum Inhibitory Concentration (MIC) testing, broth microdilution, Staphylococcus aureus. Particulars: Staphylococcus aureus ATCC29213; read-out: Staphylococcus aureus MICs Activity. It counts as cell-based. In short, it runs like this: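 Broth microdilution per NCCLS M7-A5 in Mueller Hinton broth, with compound in 1.6% DMSO and inoculum at OD 0.09 diluted 1:100. Plates incubated 16–20 h at 37°C. MIC is the lowest concentration with no visible growth; scored A ≤8, B 16–64, C >64 μg/ml.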

Converted amounts (≈) assume the structure as drawn.

As for `N#Cc1ccc(-c2csc(COc3ccc(F)c(C(N)=O)c3F)n2)cc1` [Example 276, 3-[4-(4-Cyano-phenyl)-thiazol-2-ylmethoxy]-2,6-difluoro-benzamide], the MIC (in the test on Bacillus subtilis 168CA; in test [1]) was below 8 µg/mL in each case.
With `COc1ccc(-c2nc(COc3ccc(F)c(C(N)=O)c3F)sc2-c2ccc(N)cc2)cc1` [Example 285, 2,6-Difluoro-3-[5-(4-amino-phenyl)-4-(4-methoxy-phenyl)-thiazol-2-ylmethoxy]-benzamide], the MIC (in the test with Bacillus subtilis 168CA; in test [1]) was below 8 µg/mL throughout.
`NC(=O)c1cccc(OCc2cccc(Br)c2)c1` [Example 171, 3-[(3-Bromobenzyl)oxy]benzenecarboxamide]: the MIC (with Bacillus subtilis 168CA; in test [1]) was 16 to 64 µg/mL (≈ 52.3 to 209 µM) each time.
As to `CC/C=C\CCCCOc1ccc(F)c(C(N)=O)c1` [Example 73, 2-Fluoro-5-[(Z)-5-octenyloxy]benzenecarboxamide], the MIC (in the test on Bacillus subtilis 168CA; in test [1]) was below 8 µg/mL each time.
As for `Cc1ccc2sc(COc3ccc(F)c(C(N)=O)c3F)cc2c1` [Example 205, 2,6-Difluoro-3-[(5-methyl-1-benzothiophen-2-yl)methoxy]benzenecarboxamide], the MIC (with Bacillus subtilis 168CA; in test [1]) was below 8 µg/mL each time.
In the case of `NC(=O)c1c(F)ccc(OCc2nc3cc(-c4cccc(O)c4)ccc3s2)c1F` [Example 136, 2,6-Difluoro-3-[5-(3-hydroxy-phenyl)-benzothiazol-2-ylmethoxy]-benzamide], the MIC (with Bacillus subtilis 168CA; in test [1]) was below 8 µg/mL in each case.
Regarding `NC(=O)c1cccc(OCCC2CCCCCC2)c1` [Example 28, 3-(2-Cycloheptylethoxy)benzenecarboxamide], the MIC in the test on Bacillus subtilis 168CA is below 8 µg/mL; in test [1] it was above 64 µg/mL.
In the same order, the values of `NC(=O)c1ccnc(OCc2nc(-c3ccc(Cl)cc3)cs2)c1` [Example 275, 2-[4-(4-Chloro-phenyl)-thiazol-2-ylmethoxy]-isonicotinamide] are 16 to 64 µg/mL (≈ 46.3 to 185 µM) and 16 to 64 µg/mL (≈ 46.3 to 185 µM).
In the same order, the values of `C#CCCCCCCCCCOc1ccc(F)c(C(N)=O)c1` [Example 75, 2-Fluoro-5-(10-undecynyloxy)benzenecarboxamide] are below 8 µg/mL and below 8 µg/mL.
As to `NC(=O)c1c(F)ccc(OCc2nc(-c3ccc(O)cc3)co2)c1F` [Example 312, 2,6-Difluoro-3-[4-(4-hydroxy-phenyl)-oxazol-2-ylmethoxy]-benzamide], the MIC in the test with Bacillus subtilis 168CA was 16 to 64 µg/mL (≈ 46.2 to 185 µM); in test [1], below 8 µg/mL.
In the same order, the values of `CCCCCCOc1nccc(C(N)=O)c1Cl` [Example 174, 3-Chloro-2-(hexyloxy)isonicotinamide] are 16 to 64 µg/mL (≈ 62.3 to 249 µM) and 16 to 64 µg/mL (≈ 62.3 to 249 µM).
In the same order, the values of `COc1ccc2nc(COc3ccc(F)c(C(N)=O)c3F)ccc2c1` [Example 109, 3-(6-Methoxyquinolin-2-ylmethoxy)-2,6-difluoro-benzamide] are below 8 µg/mL and 16 to 64 µg/mL (≈ 46.5 to 186 µM).
In the same order, the values of `NC(=O)c1c(F)ccc(OCc2ccco2)c1F` [Example 183, 2,6-Difluoro-3-(2-furylmethoxy)benzenecarboxamide] are 16 to 64 µg/mL (≈ 63.2 to 253 µM) and 16 to 64 µg/mL (≈ 63.2 to 253 µM).
On to `CCCCC#CCCCOc1cccc(C(N)=O)c1` [Example 32, 3-(4-Nonynyloxy)benzenecarboxamide], for which the MIC in the test with Bacillus subtilis 168CA was below 8 µg/mL; in test [1], 16 to 64 µg/mL (≈ 61.7 to 247 µM).
As to `NC(=O)c1c(Cl)ccc(OCc2nc3cc(Cl)ccc3s2)c1F` [Example 220, 6-Chloro-3-[(5-chloro-1,3-benzothiazol-2-yl)methoxy]-2-fluorobenzenecarboxamide], the MIC (in the test with Bacillus subtilis 168CA; in test [1]) was below 8 µg/mL each time.
With `NC(=O)c1c(F)ccc(OCc2cccc(-n3cccc3)c2)c1F` [Example 161, 2,6-Difluoro-3-(3-pyrrol-1-yl-benzyloxy)-benzamide], the MIC (in the test with Bacillus subtilis 168CA; in test [1]) was below 8 µg/mL each time.
`NC(=O)c1c(F)ccc(OCc2nc(-c3ccc(Cl)cc3)cs2)c1Cl` [Example 274, 2-Chloro-3-[4-(4-chloro-phenyl)-thiazol-2-ylmethoxy]-6-fluoro-benzamide]: the MIC (in the test on Bacillus subtilis 168CA; in test [1]) was below 8 µg/mL in each case.
On to `COc1ccc(-c2nc(COc3ccc(F)c(C(N)=O)c3F)sc2-c2ccccc2OC)cc1` [Example 280, 2,6-Difluoro-3-[5-(2-methoxy-phenyl)-4-(4-methoxy-phenyl)-thiazol-2-ylmethoxy]-benzamide], for which the MIC (with Bacillus subtilis 168CA; in test [1]) was below 8 µg/mL each time.
As to `NC(=O)c1c(F)ccc(OCc2nc3cc(-c4ccc(O)cc4)ccc3s2)c1F` [Example 140, 2,6-Difluoro-3-[5-(4-hydroxy-phenyl)-benzothiazol-2-ylmethoxy]-benzamide], the MIC was above 64 µg/mL with Bacillus subtilis 168CA and below 8 µg/mL in test [1].
In the case of `NC(=O)c1c(F)ccc(OCc2noc(-c3cccs3)n2)c1F` [Example 134, 2,6-Difluoro-3-(5-thiophen-2-yl-[1,2,4]oxadiazol-3-ylmethoxy)-benzamide], the MIC (in the test on Bacillus subtilis 168CA; in test [1]) was 16 to 64 µg/mL (≈ 47.4 to 190 µM) throughout.
On to `NC(=O)c1c(F)ccc(OCc2nc(-c3ccc(OC(F)(F)F)cc3)no2)c1F` [Example 292], for which the MIC (with Bacillus subtilis 168CA; in test [1]) was below 8 µg/mL each time.
For `Cc1nc(COc2ccc(F)c(C(N)=O)c2F)cs1` [Example 190, 2,6-Difluoro-3-[(2-methyl-1,3-thiazol-4-yl)methoxy]benzenecarboxamide], the MIC (in the test on Bacillus subtilis 168CA; in test [1]) was 16 to 64 µg/mL (≈ 56.3 to 225 µM) throughout.
Regarding `NC(=O)c1c(F)ccc(OCc2nc(-c3ccc(C(F)(F)F)cc3)cs2)c1F` [Example 319, 2,6-Difluoro-3-[4-(4-trifluoromethyl-phenyl)-thiazol-2-ylmethoxy]-benzamide], the MIC (in the test on Bacillus subtilis 168CA; in test [1]) was below 8 µg/mL throughout.
For the compound `COc1ccc(-c2nc(COc3ccc(F)c(C(N)=O)c3F)sc2-c2cccc(O)c2)cc1` [Example 278, 2,6-Difluoro-3-[5-(3-hydroxy-phenyl)-4-(4-methoxy-phenyl)-thiazol-2-ylmethoxy]-benzamide], the MIC (in the test on Bacillus subtilis 168CA; in test [1]) was below 8 µg/mL in each case.
For `NC(=O)c1c(F)ccc(OCc2nc(-c3ccccc3Cl)cs2)c1F` [Example 99, 3-[4-(2-Chloro-phenyl)-thiazol-2-ylmethoxy]-2,6-difluoro-benzamide], the MIC (with Bacillus subtilis 168CA; in test [1]) was below 8 µg/mL each time.
As to `NC(=O)c1c(F)ccc(OCc2cccc(Cl)c2)c1F` [Example 331, 3-(3-Chloro-benzyloxy)-2,6-difluoro-benzamide], the values for the MIC (in the test with Bacillus subtilis 168CA; in test [1]) were below 8 µg/mL and 16 to 64 µg/mL (≈ 53.7 to 215 µM), respectively.
In the same order, the values of `CCCCCCOc1cccc(C(N)=O)c1O` [Example 166, 2-Hydroxy-3-Hexoxy-benzamide] are above 64 µg/mL and above 64 µg/mL.
In the same order, the values of `Cc1ccc2nc(COc3ccc(F)c(C(N)=O)c3F)oc2c1` [Example 211, 2,6-Difluoro-3-[(6-methyl-1,3-benzoxazol-2-yl)methoxy]benzenecarboxamide] are below 8 µg/mL and 16 to 64 µg/mL (≈ 50.3 to 201 µM).
In the same order, the values of `NC(=O)c1c(F)ccc(OCc2cncs2)c1F` [Example 189, 2,6-Difluoro-3-(1,3-thiazol-5-ylmethoxy)benzenecarboxamide] are above 64 µg/mL and above 64 µg/mL.
In the case of `NC(=O)c1c(F)ccc(OCc2csc(-c3ccc(F)cc3)n2)c1F` [Example 305, 2,6-Difluoro-3-[2-(4-fluoro-phenyl)-thiazol-4-ylmethoxy]-benzamide], the MIC (in the test with Bacillus subtilis 168CA; in test [1]) was below 8 µg/mL in each case.
For `NC(=O)c1c(F)ccc(OCc2nc3cc(-c4ccccc4O)ccc3s2)c1F` [Example 157, 2,6-Difluoro-3-[5-(2-hydroxy-phenyl)-benzothiazol-2-ylmethoxy]-benzamide], the MIC (in the test with Bacillus subtilis 168CA; in test [1]) was below 8 µg/mL in each case.
`CCCCOC(=O)COc1cccc(C(N)=O)c1F` [Example 176, Butyl 2-[3-(aminocarbonyl)-2-fluorophenoxy]acetate]: the MIC in the test on Bacillus subtilis 168CA was below 8 µg/mL; in test [1], 16 to 64 µg/mL (≈ 59.4 to 238 µM).
In the same order, the values of `COC(=O)CCCOc1cccc(C(N)=O)c1` [Example 26, Methyl 4-[3-(aminocarbonyl)phenoxy]butanoate] are above 64 µg/mL and above 64 µg/mL.
Turning to `NC(=O)c1c(F)ccc(OCc2nc3cc([N+](=O)[O-])ccc3s2)c1F` [Example 117, 2,6-Difluoro-3-(5-nitro-benzothiazol-2-ylmethoxy)-benzamide], the MIC (with Bacillus subtilis 168CA; in test [1]) was below 8 µg/mL in each case.
As to `NC(=O)c1c(F)ccc(OCc2ccoc2)c1F` [Example 184, 2,6-Difluoro-3-(3-furylmethoxy)benzenecarboxamide], the MIC (in the test with Bacillus subtilis 168CA; in test [1]) was 16 to 64 µg/mL (≈ 63.2 to 253 µM) each time.
For the compound `NC(=O)c1cccc(OCCCCCCc2ccccc2)c1` [Example 36, 3-[(6-Phenylhexyl)oxy]benzenecarboxamide], the MIC with Bacillus subtilis 168CA was below 8 µg/mL; in test [1] it was above 64 µg/mL.
On to `CCCCCC#CCCOc1cccc(C(N)=O)c1` [Example 51, 3-(3-Nonynyloxy)benzenecarboxamide], for which the MIC is below 8 µg/mL in the test on Bacillus subtilis 168CA and 16 to 64 µg/mL (≈ 61.7 to 247 µM) in test [1].
As for `NC(=O)c1cccc(OCc2nc(-c3ccc(Cl)cc3)no2)c1F` [Example 267, 3-[3-(4-Chloro-phenyl)-[1,2,4]oxadiazol-5-ylmethoxy]-2-fluoro-benzamide], the MIC (with Bacillus subtilis 168CA; in test [1]) was below 8 µg/mL each time.
Consider `CCCCCOCCOc1cccc(C(N)=O)c1` [Example 53, 3-[2-(Pentyloxy)ethoxy]benzenecarboxamide], for which the MIC (in the test on Bacillus subtilis 168CA; in test [1]) was above 64 µg/mL throughout.
As to `NC(=O)c1c(F)ccc(OCc2nc(-c3ccccc3)cs2)c1F` [Example 235, 2,6-Difluoro-3-[(4-phenyl-1,3-thiazol-2-yl)methoxy]benzenecarboxamide], the MIC (in the test on Bacillus subtilis 168CA; in test [1]) was below 8 µg/mL throughout.

The values above are taken from patent publication US8088791B2, “Antibacterial agents” (Biots Scientific Management Pty Ltd, priority 2006, dated 2012).
